Data taken from patent US9334279B2, “Hepatitis C virus inhibitors” (BRISTOL-MYERS SQUIBB COMPANY, priority 2012, dated 2016).
Read-outs that look alike come from different tables or passages of the source.

Tests used:
HCV GT1a(H77) replicon = test: HCV replicon luciferase reporter assay, genotype 1a; assay type: cell-based, HCV genotype 1a; conditions: Hepatitis C virus, 72 h, HUH-7 cells, Renilla luciferase, 3 days incubation
Method in brief: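 Huh-7 cells stably carried a GT1a(H77) Renilla luciferase replicon with NS3 P1496L and NS5A S2204I adaptive mutations. Luminescence was read after 2 h with 7.5 μM EnduRen, and EC50 came from a four-parameter logistic fit; CC50 came from multiplexed Cell Titer-Blue (8 h).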

HCV GT1b(Con1) replicon = test: HCV replicon luciferase reporter assay, genotype 1b; assay type: cell-based, HCV genotype 1b; conditions: Hepatitis C virus, 72 h, HUH-7 cells, Renilla luciferase, 3 days incubation
Method in brief: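 HUH-7 cells stably carrying a Con1 GT1b replicon with Renilla luciferase and Ser1179Ile adaptive mutation; 3.0×10^3 cells/well, DMEM 4% FCS, 0.5% DMSO, twenty-point 3-fold titration, 3 days 37 °C. Luminescence 2 h after 7.5 μM EnduRen; EC50 by four-parameter logistic fit. CC50 from multiplexed Cell Titer-Blue fluorescence (8 h).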

Row | SMILES | EC50 (HCV GT1a(H77) replicon; read-out: LE_1a (EC50)) [nM] | EC50 (HCV GT1a(H77) replicon; read-out: LE_1a (EC50, range)) [nM] | EC50 (HCV GT1b(Con1) replicon; read-out: LE_1b (EC50)) [nM] | EC50 (HCV GT1b(Con1) replicon; read-out: LE_1b (EC50, range)) [nM]
1 | C[C@@H]1CC/C=C\[C@@H]2C[C@@]2(C(=O)NS(=O)(=O)C2(C)CC2)NC(=O)[C@@H]2C[C@@H](Oc3cc(-c4nccs4)nc(-c4nccs4)c3)CN2C(=O)[C@@H](NC(=O)OC(C)(C)C(F)(F)F)[C@H](C)C1 [Compound 1023, 1,1,1-trifluoro-2-methylpropan-2-yl ((2R,6S,7R,9R,13aS,14aR,16aS,Z)-2-((2,6-di(thiazol-2-yl)pyridin-4-yl)oxy)-7,9-dimethyl-14a-(((1-methylcyclopropyl)sulfonyl)carbamoyl)-5,16-dioxo-1,2,3,5,6,7,8,9,10,11,13a,14,14a,15,16,16a-hexadecahydrocyclopropa[e]pyrrolo[1,2-a][1,4]diazacyclopentadecin-6-yl)carbamate] | 0.46 | 0.1 to 0.5 | 0.4 | 0.1 to 0.5
2 | C[C@H]1CC/C=C\[C@@H]2C[C@@]2(C(=O)NS(=O)(=O)C2(C)CC2)NC(=O)[C@@H]2C[C@@H](Oc3cc(-c4nccs4)nc(-c4nccs4)c3)CN2C(=O)[C@@H](NC(=O)OC(C)(C)C(F)(F)F)[C@H](C)C1 [Compound 1024, 1,1,1-trifluoro-2-methylpropan-2-yl ((2R,6S,7R,9S,13aS,14aR,16aS,Z)-2-((2,6-di(thiazol-2-yl)pyridin-4-yl)oxy)-7,9-dimethyl-14a-(((1-methylcyclopropyl)sulfonyl)carbamoyl)-5,16-dioxo-1,2,3,5,6,7,8,9,10,11,13a,14,14a,15,16,16a-hexadecahydrocyclopropa[e]pyrrolo[1,2-a][1,4]diazacyclopentadecin-6-yl)carbamate] | – | 1.01 to 5 | – | 0.51 to 1
3 | C[C@@H]1CC/C=C\[C@@H]2C[C@@]2(C(=O)NS(=O)(=O)C2(C)CC2)NC(=O)[C@@H]2C[C@@H](Oc3ccnc(-c4nccs4)c3)CN2C(=O)[C@@H](NC(=O)OC(C)(C)C(F)(F)F)[C@H](C)C1 [Compound 1025, 1,1,1-trifluoro-2-methylpropan-2-yl ((2R,6S,7R,9R,13aS,14aR,16aS,Z)-7,9-dimethyl-14a-(((1-methylcyclopropyl)sulfonyl)carbamoyl)-5,16-dioxo-2-((2-(thiazol-2-yl)pyridin-4-yl)oxy)-1,2,3,5,6,7,8,9,10,11,13a,14,14a,15,16,16a-hexadecahydrocyclopropa[e]pyrrolo[1,2-a][1,4]diazacyclopentadecin-6-yl)carbamate] | – | 1.01 to 5 | – | 0.51 to 1
4 | C[C@@H]1CC/C=C\[C@@H]2C[C@@]2(C(=O)NS(=O)(=O)C2CC2)NC(=O)[C@@H]2C[C@@H](Oc3cc(Cl)ccn3)CN2C(=O)[C@@H](NC(=O)OC(C)(C)C(F)(F)F)[C@H](C)C1 [Compound 1026, 1,1,1-trifluoro-2-methylpropan-2-yl ((2R,6S,7R,9R,13aS,14aR,16aS,Z)-2-((4-chloropyridin-2-yl)oxy)-14a-((cyclopropylsulfonyl)carbamoyl)-7,9-dimethyl-5,16-dioxo-1,2,3,5,6,7,8,9,10,11,13a,14,14a,15,16,16a-hexadecahydrocyclopropa[e]pyrrolo[1,2-a][1,4]diazacyclopentadecin-6-yl)carbamate] | – | 5.01 to 35 | – | 5.01 to 35
5 | CC(C)Oc1ccc(-c2cc(Cl)cc(O[C@@H]3C[C@H]4C(=O)N[C@]5(C(=O)NS(=O)(=O)C6(C)CC6)C[C@H]5/C=C\CC[C@@H](C)C[C@@H](C)[C@H](NC(=O)OC(C)(C)C(F)(F)F)C(=O)N4C3)n2)cc1 [Compound 1027, 1,1,1-trifluoro-2-methylpropan-2-yl ((2R,6S,7R,9R,13aS,14aR,16aS,Z)-2-((4-chloro-6-(4-isopropoxyphenyl)pyridin-2-yl)oxy)-7,9-dimethyl-14a-(((1-methylcyclopropyl)sulfonyl)carbamoyl)-5,16-dioxo-1,2,3,5,6,7,8,9,10,11,13a,14,14a,15,16,16a-hexadecahydrocyclopropa[e]pyrrolo[1,2-a][1,4]diazacyclopentadecin-6-yl)carbamate] | – | 1.01 to 5 | – | 1.01 to 5
6 | CC(C)Oc1ccc(-c2cc(Cl)cc(O[C@@H]3C[C@H]4C(=O)N[C@]5(C(=O)NS(=O)(=O)C6(C)CC6)C[C@H]5/C=C\CC[C@H](C)C[C@@H](C)[C@H](NC(=O)OC(C)(C)C(F)(F)F)C(=O)N4C3)n2)cc1 [Compound 1028, 1,1,1-trifluoro-2-methylpropan-2-yl ((2R,6S,7R,9S,13aS,14aR,16aS,Z)-2-((4-chloro-6-(4-isopropoxyphenyl)pyridin-2-yl)oxy)-7,9-dimethyl-14a-(((1-methylcyclopropyl)sulfonyl)carbamoyl)-5,16-dioxo-1,2,3,5,6,7,8,9,10,11,13a,14,14a,15,16,16a-hexadecahydrocyclopropa[e]pyrrolo[1,2-a][1,4]diazacyclopentadecin-6-yl)carbamate] | – | 35 to 359 | – | 35 to 359
7 | CC(C)Oc1ccc(-c2cc(Cl)cc(O[C@@H]3C[C@H]4C(=O)N[C@]5(C(=O)NS(=O)(=O)C6(C)CC6)C[C@H]5/C=C\CC[C@@H](C)C[C@@H](C)[C@H](NC(=O)OC(C)(C)C)C(=O)N4C3)n2)cc1 [Compound 1029, tert-butyl ((2R,6S,7R,9R,13aS,14aR,16aS,Z)-2-((4-chloro-6-(4-isopropoxyphenyl)pyridin-2-yl)oxy)-7,9-dimethyl-14a-(((1-methylcyclopropyl)sulfonyl)carbamoyl)-5,16-dioxo-1,2,3,5,6,7,8,9,10,11,13a,14,14a,15,16,16a-hexadecahydrocyclopropa[e]pyrrolo[1,2-a][1,4]diazacyclopentadecin-6-yl)carbamate] | – | 1.01 to 5 | – | 1.01 to 5
8 | CC(C)Oc1ccc(-c2cc(Cl)cc(O[C@@H]3C[C@H]4C(=O)N[C@]5(C(=O)NS(=O)(=O)C6(C)CC6)C[C@H]5/C=C\CC[C@H](C)C[C@@H](C)[C@H](NC(=O)OC(C)(C)C)C(=O)N4C3)n2)cc1 [Compound 1030, tert-butyl ((2R,6S,7R,9S,13aS,14aR,16aS,Z)-2-((4-chloro-6-(4-isopropoxyphenyl)pyridin-2-yl)oxy)-7,9-dimethyl-14a-(((1-methylcyclopropyl)sulfonyl)carbamoyl)-5,16-dioxo-1,2,3,5,6,7,8,9,10,11,13a,14,14a,15,16,16a-hexadecahydrocyclopropa[e]pyrrolo[1,2-a][1,4]diazacyclopentadecin-6-yl)carbamate] | – | 35 to 359 | – | 35 to 359
9 | C[C@@H]1CC/C=C\[C@@H]2C[C@@]2(C(=O)NS(=O)(=O)C2(C)CC2)NC(=O)[C@@H]2C[C@@H](Oc3cc(-c4nccs4)ccn3)CN2C(=O)[C@@H](NC(=O)OC(C)(C)C(F)(F)F)[C@H](C)C1 [Compound 1031, 1,1,1-trifluoro-2-methylpropan-2-yl ((2R,6S,7R,9R,13aS,14aR,16aS,Z)-7,9-dimethyl-14a-(((1-methylcyclopropyl)sulfonyl)carbamoyl)-5,16-dioxo-2-((4-(thiazol-2-yl)pyridin-2-yl)oxy)-1,2,3,5,6,7,8,9,10,11,13a,14,14a,15,16,16a-hexadecahydrocyclopropa[e]pyrrolo[1,2-a][1,4]diazacyclopentadecin-6-yl)carbamate] | – | 1.01 to 5 | – | 0.51 to 1
